System: 898857-211-R-J1-PDC complex spheroids, growth % test/control
Experiment: Anticancer human tumor 898857-211-R-J1-PDC patient-derived melanoma cell line growth inhibition [RAS]
Conditions: for IC50: curve of first compound; for viability, T/C: stronger effect = lower value
Summary of the method: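 Agents were tested in combination matrices in half-log decrements from a top concentration at or near clinical Cmax (10 microM if undetermined). Targets were multi-cell spheroids of tumour lines plus HUVEC and MSC stromal cells.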

[1] = second compound 0.0316 µM, first compound 0.0316 µM
[2] = second compound 0.0316 µM, first compound 0.1 µM
[3] = second compound 0.0316 µM, first compound 0.316 µM
[4] = second compound 0.0316 µM, first compound 1 µM
[5] = second compound 0.0316 µM, first compound 3.16 µM
[6] = second compound 0.0316 µM, first compound 10 µM
[7] = second compound 0.1 µM, first compound 0.0316 µM
[8] = second compound 0.1 µM, first compound 0.1 µM
[9] = second compound 0.1 µM, first compound 0.316 µM
[10] = second compound 0.1 µM, first compound 1 µM
[11] = second compound 0.1 µM, first compound 3.16 µM
[12] = second compound 0.1 µM, first compound 10 µM
[13] = second compound 0.316 µM, first compound 0.0316 µM
[14] = second compound 0.316 µM, first compound 0.1 µM
[15] = second compound 0.316 µM, first compound 0.316 µM
[16] = second compound 0.316 µM, first compound 1 µM
[17] = second compound 0.316 µM, first compound 3.16 µM
[18] = second compound 0.316 µM, first compound 10 µM
[19] = second compound 1 µM, first compound 0.0316 µM
[20] = second compound 1 µM, first compound 0.1 µM
[21] = second compound 1 µM, first compound 0.316 µM
[22] = second compound 1 µM, first compound 1 µM
[23] = second compound 1 µM, first compound 3.16 µM
[24] = second compound 1 µM, first compound 10 µM
[25] = second compound 3.16 µM, first compound 0.0316 µM
[26] = second compound 3.16 µM, first compound 0.1 µM
[27] = second compound 3.16 µM, first compound 0.316 µM
[28] = second compound 3.16 µM, first compound 1 µM
[29] = second compound 3.16 µM, first compound 3.16 µM
[30] = second compound 3.16 µM, first compound 10 µM
[31] = second compound 10 µM, first compound 0.0316 µM
[32] = second compound 10 µM, first compound 0.1 µM
[33] = second compound 10 µM, first compound 0.316 µM
[34] = second compound 10 µM, first compound 1 µM
[35] = second compound 10 µM, first compound 3.16 µM
[36] = second compound 10 µM, first compound 10 µM
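Note: spheroids exposed to compound for seven days before readout.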
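Throughout, for viability, T/C: 100% = DMSO vehicle control wells.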

SMILES: CC1(O)CCCC1n1c(=O)c(C(F)F)cc2cnc(NC3CCN(S(C)(=O)=O)CC3)nc21 (stereo unspecified) + C#Cc1c(F)ccc2cc(O)cc(-c3ncc4c(N5CC6CCC(C5)N6)nc(OCC56CCCN5CC(F)C6)nc4c3F)c12
- IC50 (second compound 0.0316 µM): 584 nM
- IC50 (second compound 0.1 µM): 129 nM
- IC50 (second compound 0.316 µM): 334 nM
- IC50 (second compound 1 µM): 529 nM
- IC50 (second compound 3.16 µM): 321 nM
- IC50 (second compound 10 µM): < 31.6 nM
- viability, T/C [1]: 66.1%
- viability, T/C [2]: 53.6%
- viability, T/C [3]: 44.3%
- viability, T/C [4]: 49.5%
- viability, T/C [5]: 43.1%
- viability, T/C [6]: 19.9%
- viability, T/C [7]: 95%
- viability, T/C [8]: 52.6%
- viability, T/C [9]: 38.7%
- viability, T/C [10]: 43.4%
- viability, T/C [11]: 48.3%
- viability, T/C [12]: 23.4%
- viability, T/C [13]: 76.8%
- viability, T/C [14]: 50.7%
- viability, T/C [15]: 41.8%
- viability, T/C [16]: 49.8%
- viability, T/C [17]: 43.5%
- viability, T/C [18]: 19.4%
- viability, T/C [19]: 79%
- viability, T/C [20]: 57.6%
- viability, T/C [21]: 46.2%
- viability, T/C [22]: 46.8%
- viability, T/C [23]: 48.3%
- viability, T/C [24]: 18.1%
- viability, T/C [25]: 88.7%
- viability, T/C [26]: 54.5%
- viability, T/C [27]: 49.4%
- viability, T/C [28]: 41.5%
- viability, T/C [29]: 46.7%
- viability, T/C [30]: 16.5%
- viability, T/C [31]: 37.5%
- viability, T/C [32]: 24.6%
- viability, T/C [33]: 26.9%
- viability, T/C [34]: 27.1%
- viability, T/C [35]: 35.8%
- viability, T/C [36]: 2.8%

SMILES: CCC(CC)c1cc(NC2CCC(N)C2)n2nccc2n1 (stereo unspecified) + C#Cc1c(F)ccc2cc(O)cc(-c3ncc4c(N5CC6CCC(C5)N6)nc(OCC56CCCN5CC(F)C6)nc4c3F)c12
- IC50 (second compound 0.0316 µM): 1070 nM
- IC50 (second compound 0.1 µM): 1210 nM
- IC50 (second compound 0.316 µM): 1240 nM
- IC50 (second compound 1 µM): 1260 nM
- IC50 (second compound 3.16 µM): 1090 nM
- IC50 (second compound 10 µM): 32 nM
- viability, T/C [1]: 113%
- viability, T/C [2]: 105%
- viability, T/C [3]: 97.6%
- viability, T/C [4]: 54.5%
- viability, T/C [5]: 1.81%
- viability, T/C [6]: 0.32%
- viability, T/C [7]: 119%
- viability, T/C [8]: 98.3%
- viability, T/C [9]: 101%
- viability, T/C [10]: 60%
- viability, T/C [11]: 2.14%
- viability, T/C [12]: 0.33%
- viability, T/C [13]: 99.7%
- viability, T/C [14]: 107%
- viability, T/C [15]: 93.4%
- viability, T/C [16]: 61.6%
- viability, T/C [17]: 1.82%
- viability, T/C [18]: 0.52%
- viability, T/C [19]: 103%
- viability, T/C [20]: 121%
- viability, T/C [21]: 105%
- viability, T/C [22]: 61.9%
- viability, T/C [23]: 2.03%
- viability, T/C [24]: 0.38%
- viability, T/C [25]: 105%
- viability, T/C [26]: 97.1%
- viability, T/C [27]: 92.5%
- viability, T/C [28]: 55%
- viability, T/C [29]: 1.64%
- viability, T/C [30]: 0.34%
- viability, T/C [31]: 52.9%
- viability, T/C [32]: 32.4%
- viability, T/C [33]: 30%
- viability, T/C [34]: 25.2%
- viability, T/C [35]: 0.4%
- viability, T/C [36]: 0.18%

SMILES: CCN1CCN(Cc2ccc(Nc3ncc(F)c(-c4cc(F)c5nc(C)n(C(C)C)c5c4)n3)nc2)CC1 + C#Cc1c(F)ccc2cc(O)cc(-c3ncc4c(N5CC6CCC(C5)N6)nc(OCC56CCCN5CC(F)C6)nc4c3F)c12
- IC50 (second compound 0.0316 µM): 269 nM
- IC50 (second compound 0.1 µM): 256 nM
- IC50 (second compound 0.316 µM): 235 nM
- IC50 (second compound 1 µM): 298 nM
- IC50 (second compound 3.16 µM): 196 nM
- IC50 (second compound 10 µM): 6.16 nM
- viability, T/C (second compound 0.0316 µM, first compound 0.00316 µM): 98.6%
- viability, T/C (second compound 0.0316 µM, first compound 0.01 µM): 87.4%
- viability, T/C [1]: 91.9%
- viability, T/C [2]: 74.3%
- viability, T/C [3]: 46%
- viability, T/C [4]: 37.5%
- viability, T/C (second compound 0.1 µM, first compound 0.00316 µM): 101%
- viability, T/C (second compound 0.1 µM, first compound 0.01 µM): 92.6%
- viability, T/C [7]: 96.6%
- viability, T/C [8]: 75.2%
- viability, T/C [9]: 44.4%
- viability, T/C [10]: 42.1%
- viability, T/C (second compound 0.316 µM, first compound 0.00316 µM): 112%
- viability, T/C (second compound 0.316 µM, first compound 0.01 µM): 99.5%
- viability, T/C [13]: 96%
- viability, T/C [14]: 65.4%
- viability, T/C [15]: 44.9%
- viability, T/C [16]: 32.2%
- viability, T/C (second compound 1 µM, first compound 0.00316 µM): 93%
- viability, T/C (second compound 1 µM, first compound 0.01 µM): 101%
- viability, T/C [19]: 96.5%
- viability, T/C [20]: 72.1%
- viability, T/C [21]: 51.2%
- viability, T/C [22]: 38.2%
- viability, T/C (second compound 3.16 µM, first compound 0.00316 µM): 107%
- viability, T/C (second compound 3.16 µM, first compound 0.01 µM): 92.3%
- viability, T/C [25]: 91.2%
- viability, T/C [26]: 56.5%
- viability, T/C [27]: 45.9%
- viability, T/C [28]: 33.6%
- viability, T/C (second compound 10 µM, first compound 0.00316 µM): 56.4%
- viability, T/C (second compound 10 µM, first compound 0.01 µM): 45.8%
- viability, T/C [31]: 32.5%
- viability, T/C [32]: 21.5%
- viability, T/C [33]: 11.3%
- viability, T/C [34]: 2.36%
